Several values for one entry are separate records, joined by “and”; a condition that tells them apart may be missing. Equal values may be shown once.
Assay: Effect of co-administered extracts on the pharmacokinetics of theophylline in rats
Method: Carpediol spissum (Batch No Ex 20404); Swedish Herbal Institute, Gothenburg, Sweden) as described above in Example 1. […] It was analyzed for purity by HPLC, Capillary electrophoresis, ^1H-NMR and ^13C-NMR. • (e) Internal standard: Methyl-4-hydroxybenzoate 99%, F.W. 152.15 Aldrich. • (f) Water, demonized and distilled. • (g) Water for High Performance Capillary Electrophoresis (HPCE), HEWLETT-PACKARD. • (h) Buffer pH=9.3 for HPCE (50 mM Borate). • (i) 0.1N Sodium Hydroxide Solution for HPCE. • (j) Chloroform HPLC grade. • (k) 2-Propanol spectrophotometric grade. • (l) Methanol Chromasorv.
Animals—In this study, 144 time-mated male Wistar rats were used. Breeder: Institute of Fine Organic Chemistry of the National Academy of Science, Yerevan. The initial weight of the animals: 130-170 g (mean weight 149.93±12.4 g). […] All animals were clinically examined upon arrival and any animal showing signs of abnormality or disease was excluded. Animals considered unsuitable for the study were replaced before the start. No animal was replaced following the start of the study.
Dosage and Administration—An appropriate amount of herbal extract was dissolved in distilled water and given at 10:00-10:30 am by oral gavage. Suspensions were shaken gently before oral administration. Suspensions were prepared fresh every day. Control animals were given an appropriate volume of drinking water. Blood samples from rats receiving the carrier only were also analyzed.
Groups of six animals were treated orally with water (10 ml×2 times per day) for three days. 60 minutes after last administration of water, a solution of Aminophylline (10 ml/kg) was given to each animal in dose of 240 mg/kg (corresponding to 192 mg/kg of Theophylline) and blood samples were taken 0.25, 0.5, 1.0, 2.0, 4.0, 6.0 and 8.0 hours after the theophylline administration. A separate group of animals was used for each time point.
It was administered orally in a volume of 10 ml/kg of body weight. Freshly prepared extract was administered two times daily for 3 consecutive days. Single dose—25 mg/kg, daily dose—50 mg/kg. 60 minutes after last administration, a water solution of Aminophylline (10 ml/kg) was given to each animal in dose of 240 mg/kg (corresponding to 192 mg/kg of Theophylline) and blood samples were taken 0.25, 0.5, 1.0, 2.0, 4.0, 6.0 and 8.0 hours after the theophylline administration. A separate group of animals was used for each time point.
One tablet of Jarsin 300 was suspended in 10 ml of water and administered two times daily for 3 consecutive days. 60 minutes after last administration, water solution of Aminophylline (10 ml/kg) was given to each animal in dose of 240 mg/kg (corresponding to 192 mg/kg of Theophylline) and blood samples were taken 0.25, 0.5, 1.0, 2.0, 4.0, 6.0 and 8.0 hours after the theophylline administration. A separate group of animals was used for each time point.
Sampling of blood and sample preparation—Animals were sacrificed by laboratory guillotine. Following decapitation, blood was collected separately in centrifuge tubes and centrifuged at 3000 rpm for 10 min. Blood serum was separated and 50 μl was taken for theophylline assay. Conservation of the samples: the centrifuge tubes were closed with caps, frozen and stored in a freezer for 1-3 days prior to bio-assay.
Analytical Method: Capillary Electrophoresis—A modified capillary electrophoresis method was used, using an internal standard and as a mobile phase 50 mM borate buffer (pH 9.3) without SDS.
Pre-assay preparation—The Ramzan et al. method (52) of extraction of theophylline from serum was modified as follows. 50 μl of blood serum was added to 10 μl of an internal standard methanol solution (methyl-paraben, 60 μg/ml) in centrifuge tube to obtain final concentration of methyl paraben 10 μg/ml. The solution was vortexed vigorously for 10 sec and 1 ml of solvent system of isopropanol. and chloroform in a 5:95 ratio was added for extraction.

[1] = Group 1 (water control), rats, calculated by mean concentrations
[2] = Group 1 (water control), rats, mean of 6 series (column A)
[3] = Group 2 (CRE pretreatment), rats, calculated by mean concentrations
[4] = Group 2 (CRE pretreatment), rats, mean of 6 series (column A)
[5] = Group 3 (Jarsin 300 pretreatment), rats, calculated by mean concentrations
[6] = Group 3 (Jarsin 300 pretreatment), rats, mean of 6 series (column A)

In the case of `Cn1c(=O)c2[nH]cnc2n(C)c1=O` [Theophylline, 1,3-dimethylxantin], the “Concentration of Theophylline in Rat Serum” value (“Concentration of Theophylline” below) (Group 1 (water control), aminophylline 240 mg/kg p.o., 15 min, single rat) is reported as 181.11 µg/mL and 172.059 µg/mL and 225.306 µg/mL and 153.35 µg/mL and 146.67 µg/mL and 101.82 µg/mL, the “Concentration of Theophylline” value (Group 1 (water control), aminophylline 240 mg/kg p.o., 30 min, single rat) is reported as 135.41 µg/mL and 89.49 µg/mL and 50.10 µg/mL and 143.18 µg/mL and 337.56 µg/mL and 101.83 µg/mL and the “Concentration of Theophylline” value (Group 1 (water control), aminophylline 240 mg/kg p.o., 60 min, single rat) is reported as 138.11 µg/mL and 194.27 µg/mL and 255.06 µg/mL and 154.77 µg/mL and 231.79 µg/mL and 86.37 µg/mL. For the same compound, the “Concentration of Theophylline” value (Group 1 (water control), aminophylline 240 mg/kg p.o., 120 min, single rat) was 57.30 µg/mL and 71.98 µg/mL and 61.23 µg/mL and 97.22 µg/mL and 56.61 µg/mL, the “Concentration of Theophylline” value (Group 1 (water control), aminophylline 240 mg/kg p.o., 240 min, single rat) was 77.66 µg/mL and 94.86 µg/mL and 114.84 µg/mL and 61.03 µg/mL and 105.31 µg/mL and 169.15 µg/mL and the “Concentration of Theophylline” value (Group 1 (water control), aminophylline 240 mg/kg p.o., 360 min, single rat) was 43.95 µg/mL and 42.46 µg/mL and 73.58 µg/mL and 77.92 µg/mL and 81.94 µg/mL and 31.38 µg/mL. For the same compound, the “Concentration of Theophylline” value (Group 1 (water control), aminophylline 240 mg/kg p.o., 480 min, single rat) was 22.05 µg/mL and 69.25 µg/mL and 63.68 µg/mL and 44.98 µg/mL and 89.99 µg/mL and 16.09 µg/mL, the “Clt of Theophylline” value [1] was 0.4642 mL/min and the “Kel of Theophylline” value [1] was 0.149 h⁻¹. The “Vd of Theophylline” value [1] was 0.1871 L, the “Clt of Theophylline, Mean” value [2] was 0.4973 mL/min and 0.497 ± 0.055 mL/min and the “Cmax of Theophylline, Mean” value [2] was 195.2 ± 32.9 µg/mL. The “Kel of Theophylline, Mean” value [2] was 0.1638 h⁻¹ and 0.164 ± 0.02 h⁻¹, the “MRT of Theophylline, Mean” value [2] was 6.6239 ± 0.70 h and the “Vd of Theophylline, Mean” value [2] was 0.186 ± 0.015 L. The “t1/2 of Theophylline, Mean” value [2] was 4.504 ± 0.47 h, the “Clt of Theophylline” value (Group 1 (water control), rats, single series) was 0.441 mL/min and 0.3881 mL/min and 0.4945 mL/min and 0.3453 mL/min and 0.6439 mL/min and 0.671 mL/min and the “Concentration of Theophylline” value (Group 2 (CRE pretreatment 3 days), aminophylline 240 mg/kg p.o., 15 min, single rat) was 192.873 µg/mL and 144.71 µg/mL and 164.57 µg/mL and 161.40 µg/mL and 98.74 µg/mL and 8.06 µg/mL. For the same compound, the “Concentration of Theophylline” value (Group 2 (CRE pretreatment 3 days), aminophylline 240 mg/kg p.o., 30 min, single rat) was 190.52 µg/mL and 145.07 µg/mL and 223.28 µg/mL and 30.54 µg/mL and 154.41 µg/mL and 81.52 µg/mL, the “Concentration of Theophylline” value (Group 2 (CRE pretreatment 3 days), aminophylline 240 mg/kg p.o., 60 min, single rat) was 158.01 µg/mL and 189.11 µg/mL and 120.37 µg/mL and 158.89 µg/mL and 119.72 µg/mL and the “Concentration of Theophylline” value (Group 2 (CRE pretreatment 3 days), aminophylline 240 mg/kg p.o., 120 min, single rat) was 205.63 µg/mL and 140.04 µg/mL and 180.859 µg/mL and 96.55 µg/mL and 68.74 µg/mL and 91.30 µg/mL. The “Concentration of Theophylline” value (Group 2 (CRE pretreatment 3 days), aminophylline 240 mg/kg p.o., 240 min, single rat) was 89.87 µg/mL and 65.03 µg/mL and 61.82 µg/mL and 134.64 µg/mL and 148.86 µg/mL and 115.97 µg/mL, the “Concentration of Theophylline” value (Group 2 (CRE pretreatment 3 days), aminophylline 240 mg/kg p.o., 360 min, single rat) was 35.31 µg/mL and 7.61 µg/mL and 20.21 µg/mL and 233.16 µg/mL and 91.61 µg/mL and 38.01 µg/mL and the “Concentration of Theophylline” value (Group 2 (CRE pretreatment 3 days), aminophylline 240 mg/kg p.o., 480 min, single rat) was 7.16 µg/mL and 34.98 µg/mL and 45.36 µg/mL and 56.71 µg/mL and 33.96 µg/mL and 12.51 µg/mL. For the same compound, the “Clt of Theophylline” value [3] was 0.502 mL/min, the “Kel of Theophylline” value [3] was 0.2042 h⁻¹ and the “Vd of Theophylline” value [3] was 0.1475 L. For the same compound, the “Clt of Theophylline, Mean” value [4] was 0.5670 mL/min and 0.567 ± 0.067 mL/min, the “Kel of Theophylline, Mean” value [4] was 0.2706 h⁻¹ and 0.271 ± 0.035 h⁻¹ and the “Vd of Theophylline, Mean” value [4] was 0.130 ± 0.014 L. For the same compound, the “Cmax of Theophylline” value (Group 2 (CRE pretreatment), rats, single series) was 223.3 µg/mL and 161.4 µg/mL and 158.9 µg/mL and 119.7 µg/mL and 192.9 µg/mL, the “Concentration of Theophylline” value (Group 3 (Jarsin 300 pretreatment 3 days), aminophylline 240 mg/kg p.o., 15 min, single rat) was 4.86 µg/mL and 5.81 µg/mL and the “Concentration of Theophylline” value (Group 3 (Jarsin 300 pretreatment 3 days), aminophylline 240 mg/kg p.o., 30 min, single rat) was 25.01 µg/mL and 34.73 µg/mL and 27.80 µg/mL. For the same compound, the “Concentration of Theophylline” value (Group 3 (Jarsin 300 pretreatment 3 days), aminophylline 240 mg/kg p.o., 60 min, single rat) was 23.33 µg/mL and 30.97 µg/mL and 34.52 µg/mL, the “Concentration of Theophylline” value (Group 3 (Jarsin 300 pretreatment 3 days), aminophylline 240 mg/kg p.o., 120 min, single rat) was 16.13 µg/mL and 44.11 µg/mL and 20.84 µg/mL and the “Concentration of Theophylline” value (Group 3 (Jarsin 300 pretreatment 3 days), aminophylline 240 mg/kg p.o., 240 min, single rat) was 4.46 µg/mL and 16.77 µg/mL and 19.04 µg/mL. The “Concentration of Theophylline” value (Group 3 (Jarsin 300 pretreatment 3 days), aminophylline 240 mg/kg p.o., 360 min, single rat) was 5.85 µg/mL and 11.58 µg/mL, the “Concentration of Theophylline” value (Group 3 (Jarsin 300 pretreatment 3 days), aminophylline 240 mg/kg p.o., 480 min, single rat) was 2.34 µg/mL and 5.71 µg/mL and the “Clt of Theophylline” value [5] was 2.310 mL/min. The “Kel of Theophylline” value [5] was 0.2022 h⁻¹, the “Vd of Theophylline” value [5] was 0.6853 L and the “Clt of Theophylline, Mean” value [6] was 2.671 mL/min and 2.671 ± 0.637 mL/min. The “Kel of Theophylline, Mean” value [6] was 0.2204 h⁻¹ and 0.220 ± 0.033 h⁻¹, the “Vd of Theophylline, Mean” value [6] was 0.722 ± 0.091 L and the Cmax (male, Wistar, rat, in vivo, 240 mg/kg, Cmax of Theophylline, Group 1 (water control), rats, calculated by mean concentrations, 60 minutes) was 177 µg/mL. It also gave a concentration at 120 min (male, Wistar, rat, in vivo, 240 mg/kg, Concentration of Theophylline in Rat Serum, Group 1 (water control), aminophylline 240 mg/kg p.o., 120 min, single rat) of 96.3 µg/mL, a concentration at 15 min (male, Wistar, rat, in vivo, 240 mg/kg, Concentration of Theophylline in Rat Serum, Mean, Group 1 (water control), aminophylline 240 mg/kg p.o., 15 min, mean n=6) of 163 µg/mL and a concentration at 30 min (male, Wistar, rat, in vivo, 240 mg/kg, Concentration of Theophylline in Rat Serum, Mean, Group 1 (water control), aminophylline 240 mg/kg p.o., 30 min, mean n=6) of 143 µg/mL. It also gave a concentration at 60 min (male, Wistar, rat, in vivo, 240 mg/kg, Concentration of Theophylline in Rat Serum, Mean, Group 1 (water control), aminophylline 240 mg/kg p.o., 60 min, mean n=6) of 177 µg/mL, a concentration at 120 min (male, Wistar, rat, in vivo, 240 mg/kg, Concentration of Theophylline in Rat Serum, Mean, Group 1 (water control), aminophylline 240 mg/kg p.o., 120 min, mean n=6) of 73.4 µg/mL and a concentration at 240 min (male, Wistar, rat, in vivo, 240 mg/kg, Concentration of Theophylline in Rat Serum, Mean, Group 1 (water control), aminophylline 240 mg/kg p.o., 240 min, mean n=6) of 104 µg/mL. It also gave a concentration at 360 min (male, Wistar, rat, in vivo, 240 mg/kg, Concentration of Theophylline in Rat Serum, Mean, Group 1 (water control), aminophylline 240 mg/kg p.o., 360 min, mean n=6) of 58.5 µg/mL and a concentration at 480 min (male, Wistar, rat, in vivo, 240 mg/kg, Concentration of Theophylline in Rat Serum, Mean, Group 1 (water control), aminophylline 240 mg/kg p.o., 480 min, mean n=6) of 51 µg/mL.
